Tests used:
[1] = ABTS radical cation scavenging assay; conditions: 1 h incubation; for ABTS·+ scavenging activity, TEAC value: Trolox equivalent antioxidant capacity, ratio of slopes compound/Trolox
Method: This assay is based on the production of a stable dark green ABTS cation-radical (ABTS^·+) by incubating ABTS ([2,2′-azino-bis(3-eth-ylbenzothiazoline-6-sulfonic acid diammonium salt)) with potassium persulfate. […] The ABTS radical-scavenging activity of the compounds was measured according to an established method[66] with some modifications, at 30 °С in the dark; incubation time was 1 hour. […] The results were expressed as TEAC values (Trolox equivalent antioxidant capacity) calculated by dividing the slope of ABTS^·+ concentration decrease versus the antioxidant concentration by the slope of the Trolox plot.
Radical scavenging activity of the compounds was assessed using an ABTS radical decolorization assay[66] with some minor modifications. ABTS (2,2′-azino-bis-(3-ethylbenzothiazoline-6-sulfonic acid) diammonium salt) was purchased from TCI (Tokyo, Japan); potassium persulfate (di-potassium peroxodisulfate) and Trolox (6-hydroxy-2,5,7,8-tetramethychroman-2-carboxylic acid were obtained from Sigma-Aldrich Chemical Co. (St. Louis, MO, USA). Ethanol was HPLC grade. Aqueous solutions were prepared using deionized water.
Trolox was used as the antioxidant standard. A 5 mM solution of Trolox was prepared in DMSO for use as stock. Fresh working solutions of known concentrations (1–100 μM) were prepared on the day of experiments and used for calibration and as positive controls for ABTS radical cation (ABTS^•+) scavenging activity. ABTS was dissolved in deionized water to a 7 mM concentration. […] Fresh working ABTS^•+ solution was prepared for each assay.
The radical scavenging capacity of the compounds was analyzed by mixing 10 μl of compound with 240 μl of ABTS^•+ working solution. […] Ethanol blanks were run in each assay. Values were obtained from three replicates of each sample and three independent experiments.
Antioxidant capacity as a Trolox equivalent (TEAC values) was determined as the ratio between the slopes obtained from the linear correlation for concentrations of test compounds and Trolox with absorbance of ABTS radical.

[2] = Oxygen radical absorbance capacity assay (ORAC-FL); conditions: ORAC-FL, AAPH, fluorescein, 37 °C, pH 7.4; Trolox taken as 1
Method: The ability of the conjugates to reduce the amount of peroxyl radicals as another characteristic of the antioxidant activity of the compounds was determined using the oxygen radical absorbance capacity by fluorescence (ORAC-FL) method using fluorescein (FL) as a fluorescent probe. The method is based on measuring the decrease in the intensity of fluorescence with time, which characterizes the degree of decay of the fluorescent probe under the influence of peroxyl radicals. In the presence of antioxidants, the degree of decay of the fluorescent probe decreases and, accordingly, the fluorescence time increases.
The ability of compounds to scavenge peroxyl radicals was characterized by the value of the Trolox equivalent (TE, μmol of Trolox per μmol of the tested compound), which is equal to the ratio of the Trolox concentration to the tested compound concentration having the same fluorescence intensity. Peroxyl radical scavenging capacity of Trolox is taken as one (1)[67],[68].
2,2′-Azobis-(amidinopropane) dihydrochloride (AAPH), (±)-6-hydroxy-2,5,7,8-tetramethylchromane-2-carboxylic acid (Trolox) and fluorescein (FL) were purchased from Sigma-Aldrich. The reaction was carried out at 37 °C in 75 mM K,Na phosphate buffer (pH 7.4), and the final reaction mixture was 200 µL. The tested compounds and Trolox standard were dissolved in DMSO to 10 mM and further diluted in 75 mM K,Na phosphate buffer (pH 7.4). […] The blank was composed of 20 µL 75 mM K,Na phosphate buffer (pH 7.4) containing 2% (v/v) DMSO, 120 µL FL and 60 µL AAPH, and was added in each assay. Antioxidant (the test compound or Trolox, 20 µL) and FL (120 µL, final concentration: 70 nM) solutions were placed in a black 96-well microplate and were pre-incubated for 15 min at 37 °C. AAPH solution (60 µL, final concentration 12 mM) was then added rapidly using a multichannel pipette. The fluorescence was recorded every minute for 100 min. A Trolox standard curve was also obtained in each assay. All reactions were carried out in triplicate and at least three different assays were performed for each sample.
Antioxidant curves (fluorescence vs. time) were first normalized to the curve of the blank (without antioxidant) corresponding to the same assay, and the area under the fluorescence decay curve (AUC) was calculated. The net AUC corresponding to a sample was calculated by subtracting the AUC corresponding to the blank. Regression equations were calculated by plotting the net AUC against the antioxidant concentration. The ORAC value was obtained by dividing the slope of the latter curve by the slope of the Trolox curve obtained in the same assay. […] Data were expressed as means ± SEM.

[3] = molecular target: T1, Electrophorus electricus AChE (EeAChE) (Electrophorus electricus, UniProt O42275); test: biochemical; assay type: biochemical
T1 construct: from human erythrocyte and E. electricus (EeAChE) (type VI-S); purchased Sigma-Aldrich (Germany) type VI-S; host or cells: Electrophorus electricus tissue
Method: (§1) Acetylcholinesterase (AChE, EC 3.1.1.7, from human erythrocyte and E. electricus (EeAChE) (type VI-S), butyrylcholinesterase (BChE, EC 3.1.1.8, from equine serum), carboxylesterase (CaE, EC 3.1.1.1, from porcine liver), acetylthiocholine iodide (ATCh), butylthiocholine iodide (BTCh), 5,5′-dithiobis-(2-nitrobenzoic acid) (DTNB), 4-nitrophenyl acetate (4-NPA), were purchased from Sigma-Aldrich (Germany).
(§2) AChE and BChE activities were measured by the Ellman method as described earlier. The assay solution consisted of 0.1 M K/Na phosphate buffer pH 7.5, 25 °C with the addition of 0.33 mM DTNB, 0.02 unit/mL of AChE or BChE, and 1 mM of substrate (ATCh or BTCh, respectively). The assays were carried out with a reagent blank containing all components except AChE or BChE to account for non-enzymatic hydrolysis of substrate. In addition, an enzyme blank was included that contained all components except substrate to account for non-substrate sulfhydryl groups. […] The assay solution consisted of 0.1 M K/Na phosphate buffer pH 8.0, 25 °C with the addition of 1 mM 4-nitrophenyl acetate and 0.02 unit/mL of CaE. Assays were carried out with a blank containing all components except CaE.
(§3) The test compounds were dissolved in DMSO; the incubation mixture contained 2% (v/v) of the solvent. […] The test compounds were added to the assay solution and preincubated at 25°C with the enzymes for 5 min followed by the addition of substrate. A parallel control was made for the assay solution with no inhibitor. […] Each experiment was performed three times. The results were expressed as the mean ± SEM. The reaction rates in the presence and absence of inhibitor were compared, and the percent of residual enzyme activity due to the presence of test compounds was calculated.

[4] = molecular target: T2, equine serum butyrylcholinesterase (BChE) (Equus caballus, UniProt P81908); test: biochemical; assay type: biochemical; conditions: mean ± SEM, n ≥ 3
T2 construct: butyrylcholinesterase (BChE, EC 3.1.1.8, from equine serum); purchased Sigma-Aldrich (Germany); host or cells: equine serum
Method: as §1, §2, §3

[5] = molecular target: T3, human erythrocyte acetylcholinesterase (AChE) (Homo sapiens, UniProt P22303); test: biochemical; assay type: biochemical; conditions: mean ± SEM, n ≥ 3
T3 construct: Acetylcholinesterase (AChE, EC 3.1.1.7, from human erythrocyte); purchased Sigma-Aldrich (Germany); host or cells: human erythrocytes
Method: as §1, §2, §3

[6] = molecular target: T4, porcine liver carboxylesterase (CaE) (Sus scrofa, UniProt Q29550); test: CaE inhibition (4-nitrophenyl acetate hydrolysis); assay type: biochemical; conditions: 20 µM, mean ± SEM, n ≥ 3, n.a. = not active at 20 µM
T4 sequence (Q29550 19-566): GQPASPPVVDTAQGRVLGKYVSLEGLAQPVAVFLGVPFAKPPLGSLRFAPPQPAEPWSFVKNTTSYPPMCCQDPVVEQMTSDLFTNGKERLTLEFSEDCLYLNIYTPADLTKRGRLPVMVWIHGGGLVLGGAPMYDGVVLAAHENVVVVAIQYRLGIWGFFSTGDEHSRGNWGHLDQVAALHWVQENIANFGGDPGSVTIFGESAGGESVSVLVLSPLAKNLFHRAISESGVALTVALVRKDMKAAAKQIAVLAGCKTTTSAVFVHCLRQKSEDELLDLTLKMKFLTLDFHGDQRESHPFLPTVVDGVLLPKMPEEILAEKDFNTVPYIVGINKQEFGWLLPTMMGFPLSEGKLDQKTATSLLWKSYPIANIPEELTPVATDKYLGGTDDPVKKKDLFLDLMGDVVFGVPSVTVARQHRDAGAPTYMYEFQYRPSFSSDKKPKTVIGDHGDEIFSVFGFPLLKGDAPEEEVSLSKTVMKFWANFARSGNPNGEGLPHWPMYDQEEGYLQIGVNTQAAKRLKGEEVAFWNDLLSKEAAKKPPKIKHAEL
Method: as §1, §2, §3

[7] = molecular target: T5, peripheral anionic site (PAS) of EeAChE (Electrophorus electricus, UniProt O42275); assay type: binding; conditions: EeAChE 7 μM, propidium iodide 8 μM
T5 construct: from human erythrocyte and E. electricus (EeAChE) (type VI-S); purchased Sigma-Aldrich (Germany) type VI-S; host or cells: Electrophorus electricus tissue
From the text: The fluorescent assay used to evaluate competitive propidium iodide displacement from the PAS of AChE is commonly used as primary screening method of AChE pro-aggregation activity inhibitors. Propidium iodide is a selective ligand for the PAS of AChE responsible for Aβ binding.
EeAChE was used owing to its high degree of purification, high activity, and lower cost than human AChE. […] The fluorescence intensity of propidium iodide bound with AChE increases several times.
To determine the degree of displacement (% displacement) of propidium iodide from the PAS of AChE, EeAChE (final concentration 7 μM) was incubated with the test compound at a concentration of 3 and 20 μM in 1 mM Tris-HCl buffer pH 8.0, 25 °C for 15 min. Then, propidium iodide solution (final concentration 8 μM) was added, the samples were incubated for 15 min and the fluorescence spectrum (530 nm (excitation) and 600 nm (emission)) was taken. Donepezil and tacrine were used as reference compounds. The blank contained propidium iodide of the same concentration in 1 mM Tris-HCl buffer pH 8.0. The measurements were carried out in triplicate on a microplate reader FLUOStar Optima (BMG Labtech Germany).
The degree of displacement (% displacement) of propidium iodide from the peripheral anionic site of AChE was calculated by the following formula: %Displacement=100−(IFAChE+Propidium+inhibitor/IFAChE+Propidium)[…], where IFAChE + Propidium is the fluorescence intensity of the propidium associated with AChE in the absence of the test compound (taken as 100%), and IFAChE + Propidium + inhibitor is the fluorescence intensity of the propidium associated with AChE in the presence of the test compound.

[8] = tested on: isolated rat liver mitochondria; test: Inhibition of iron-induced lipid peroxidation (TBARs); conditions: read-out: IC50 of Fe3+-induced LP, LP induced by 0.5 mM Fe3+, mean ± SEM, n ≥ 3

T5 sequence (O42275 24-633): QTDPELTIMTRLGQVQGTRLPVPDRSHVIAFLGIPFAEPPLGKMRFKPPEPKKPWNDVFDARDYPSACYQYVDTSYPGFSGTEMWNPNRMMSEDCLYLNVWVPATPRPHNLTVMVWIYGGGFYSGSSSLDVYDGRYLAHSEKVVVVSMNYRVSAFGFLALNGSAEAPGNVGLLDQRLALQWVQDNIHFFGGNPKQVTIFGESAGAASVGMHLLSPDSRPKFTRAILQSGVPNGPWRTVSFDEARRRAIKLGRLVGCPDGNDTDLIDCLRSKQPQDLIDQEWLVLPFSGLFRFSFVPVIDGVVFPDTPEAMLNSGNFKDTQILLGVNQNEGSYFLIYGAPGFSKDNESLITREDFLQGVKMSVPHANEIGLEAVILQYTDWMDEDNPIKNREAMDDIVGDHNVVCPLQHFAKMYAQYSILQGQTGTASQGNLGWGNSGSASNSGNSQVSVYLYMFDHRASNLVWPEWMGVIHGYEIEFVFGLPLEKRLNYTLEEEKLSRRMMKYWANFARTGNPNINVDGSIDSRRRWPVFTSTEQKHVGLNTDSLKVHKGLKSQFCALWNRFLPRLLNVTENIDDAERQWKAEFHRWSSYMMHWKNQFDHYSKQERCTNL
T3 sequence (P22303 32-617 isoform P22303-2 limits assumed): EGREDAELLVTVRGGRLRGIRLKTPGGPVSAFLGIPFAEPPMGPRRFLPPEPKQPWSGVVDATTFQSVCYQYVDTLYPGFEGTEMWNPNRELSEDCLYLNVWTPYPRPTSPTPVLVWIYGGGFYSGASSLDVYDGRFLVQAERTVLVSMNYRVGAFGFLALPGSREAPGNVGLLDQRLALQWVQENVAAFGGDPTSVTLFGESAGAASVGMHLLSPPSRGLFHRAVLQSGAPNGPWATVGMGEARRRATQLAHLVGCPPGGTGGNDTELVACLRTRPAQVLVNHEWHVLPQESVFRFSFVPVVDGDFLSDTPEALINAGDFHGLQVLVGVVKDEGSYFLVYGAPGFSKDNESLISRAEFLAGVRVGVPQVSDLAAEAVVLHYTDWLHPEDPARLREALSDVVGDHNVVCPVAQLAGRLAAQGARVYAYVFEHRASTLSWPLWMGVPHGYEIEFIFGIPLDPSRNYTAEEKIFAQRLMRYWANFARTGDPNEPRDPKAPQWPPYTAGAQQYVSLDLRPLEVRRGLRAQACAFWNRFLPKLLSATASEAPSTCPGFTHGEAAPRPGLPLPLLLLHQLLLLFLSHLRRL
T1 sequence (O42275 24-633): as the sequence (O42275 24-633) above
T2 sequence (P81908 whole entry): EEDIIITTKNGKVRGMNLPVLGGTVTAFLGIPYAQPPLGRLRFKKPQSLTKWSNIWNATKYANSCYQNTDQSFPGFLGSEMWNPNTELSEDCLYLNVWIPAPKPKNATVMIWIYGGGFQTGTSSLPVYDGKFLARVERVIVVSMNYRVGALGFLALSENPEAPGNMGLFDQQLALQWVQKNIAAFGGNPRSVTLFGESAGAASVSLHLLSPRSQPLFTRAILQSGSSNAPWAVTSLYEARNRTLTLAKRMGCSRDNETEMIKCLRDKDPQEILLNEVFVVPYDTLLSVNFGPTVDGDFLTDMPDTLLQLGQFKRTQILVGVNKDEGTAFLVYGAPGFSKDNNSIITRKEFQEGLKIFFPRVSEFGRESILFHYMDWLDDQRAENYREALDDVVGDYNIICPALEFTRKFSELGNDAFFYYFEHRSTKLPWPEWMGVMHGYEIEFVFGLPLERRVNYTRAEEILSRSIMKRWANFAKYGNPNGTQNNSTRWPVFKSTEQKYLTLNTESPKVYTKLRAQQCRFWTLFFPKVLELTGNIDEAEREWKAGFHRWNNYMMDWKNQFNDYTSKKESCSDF

| SMILES | ABTS·+ scavenging activity, TEAC value [1] | IC50 ([1]; concentration reducing ABTS·+ by 50%) | ORAC TE value [2] | IC50 [3] | IC50 [4] | IC50 [5] | % inhibition of CaE at 20 µM [6] | % Displacement of propidium iodide, 3 µM ([7]; compound 3 µM) | % Displacement of propidium iodide, 20 µM ([7]; compound 20 µM) | IC50 [8] |
| --- | --- | --- | --- | --- | --- | --- | --- | --- | --- | --- |
| Cc1c(C)c2c(c(C)c1O)CCC(C)(C(=O)O)O2 (stereo not drawn) [Trolox, 6-hydroxy-2,5,7,8-tetramethychroman-2-carboxylic acid, reference compound] | 1.0 | 20.4 ± 1.7 µM | 1.0 µmol Trolox/ µmol comp. | – | – | – | – | – | – | – |
| Cc1ccc2c(c1)c1c(n2CCc2ccc(C)nc2)CCN(C)C1 [Dimebon, reference compound] | 0.004 | – | 1.07 ± 0.08 µmol Trolox/ µmol comp. | 32.4 ± 3.5 µM | 5.76 ± 0.51 µM | 36.3 ± 3.59 µM | n.а. | 2.8 ± 0.2% | 6.0 ± 0.5% | > 30 µM |

From paper PMC6424957 (Scientific Reports, 2019)
